{"source": "ChEMBL document CHEMBL5331114", "about": "“Discovery of Pyxinol Amide Derivatives Bearing Amino Acid Residues as Nonsubstrate Allosteric Inhibitors of P-Glycoprotein-Mediated Multidrug Resistance” (J Med Chem, 2023)", "key": {"[1]": {"molecular_target": "T1, ATP-dependent translocase ABCB1 (Homo sapiens, UniProt P08183)", "T1 sequence (P08183 whole entry)": "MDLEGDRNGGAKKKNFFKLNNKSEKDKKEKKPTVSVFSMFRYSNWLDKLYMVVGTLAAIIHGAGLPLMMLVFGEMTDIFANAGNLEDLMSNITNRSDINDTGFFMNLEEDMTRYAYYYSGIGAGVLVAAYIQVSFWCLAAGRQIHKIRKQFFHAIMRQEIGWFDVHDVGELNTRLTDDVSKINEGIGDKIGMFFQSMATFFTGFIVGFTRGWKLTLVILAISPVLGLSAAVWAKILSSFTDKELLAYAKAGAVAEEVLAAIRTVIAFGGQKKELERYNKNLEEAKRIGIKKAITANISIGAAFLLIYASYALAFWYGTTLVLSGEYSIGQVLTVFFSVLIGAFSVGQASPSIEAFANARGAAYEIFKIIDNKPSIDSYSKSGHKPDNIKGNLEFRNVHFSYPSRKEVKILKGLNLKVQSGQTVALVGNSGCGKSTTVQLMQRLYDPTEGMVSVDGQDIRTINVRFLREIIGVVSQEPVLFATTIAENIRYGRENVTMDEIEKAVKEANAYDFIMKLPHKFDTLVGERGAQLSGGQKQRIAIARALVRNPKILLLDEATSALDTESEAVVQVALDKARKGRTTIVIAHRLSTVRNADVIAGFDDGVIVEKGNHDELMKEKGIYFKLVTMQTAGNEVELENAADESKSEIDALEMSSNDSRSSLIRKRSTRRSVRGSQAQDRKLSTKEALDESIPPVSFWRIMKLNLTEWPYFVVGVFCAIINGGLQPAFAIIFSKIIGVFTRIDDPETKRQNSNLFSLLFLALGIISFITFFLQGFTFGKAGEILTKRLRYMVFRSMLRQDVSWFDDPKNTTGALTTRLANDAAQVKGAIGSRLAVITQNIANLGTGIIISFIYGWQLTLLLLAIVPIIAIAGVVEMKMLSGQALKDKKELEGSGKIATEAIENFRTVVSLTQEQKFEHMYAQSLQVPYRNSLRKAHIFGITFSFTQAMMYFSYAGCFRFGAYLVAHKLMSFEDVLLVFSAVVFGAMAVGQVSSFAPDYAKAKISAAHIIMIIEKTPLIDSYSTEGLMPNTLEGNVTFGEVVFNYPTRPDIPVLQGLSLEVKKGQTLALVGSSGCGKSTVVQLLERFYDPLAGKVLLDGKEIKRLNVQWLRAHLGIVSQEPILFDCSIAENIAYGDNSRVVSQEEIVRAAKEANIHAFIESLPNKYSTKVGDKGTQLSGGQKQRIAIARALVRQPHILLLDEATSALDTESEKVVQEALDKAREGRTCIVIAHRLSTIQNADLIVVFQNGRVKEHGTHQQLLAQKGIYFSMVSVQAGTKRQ", "experiment": "Negative allosteric modulator activity at P-glycoprotein mediated Rhodamine-123 efflux in human KBV cells assessed as increase in intracellular Rhodamine-123 accumulation incubated for 2 hrs in presence of Ptx-C by flow cytometry analysis", "type": "cell-based"}, "[2]": {"experiment": "Induction of Ptx-mediated cell cycle arrest in human KBV cells assessed as accumulation of cells at Sub-G1 phase at 10 uM incubated for 24 hrs in presence of paclitaxel by flow cytometry analysis (reference value: 1.21 +/- 0.3%)", "type": "functional"}, "[3]": {"molecular_target": "T1, ATP-dependent translocase ABCB1", "experiment": "Binding affinity to P-glycoprotein in human KBV cells assessed as stabilization of P-glycoprotein at 50 uM incubated for 26 hrs by western blot based cellular thermal shift assay", "type": "cell-based"}, "[4]": {"experiment": "Induction of cell cycle arrest in human KBV cells assessed as accumulation of cells at G2-M phase at 10 uM incubated for 24 hrs by flow cytometry analysis (reference value: 24.94 +/- 0.21%)", "type": "functional"}, "[5]": {"experiment": "Induction of Ptx-mediated cell cycle arrest in human KBV cells assessed as accumulation of cells at S phase at 10 uM incubated for 24 hrs in presence of paclitaxel by flow cytometry analysis (Rvb =16.63 +/- 0.4%)", "type": "functional"}, "P-gp (ABCB1) ATPase [6]": {"molecular_target": "T2, P-gp (ABCB1) ATPase (Homo sapiens, UniProt P08183)", "T2 sequence (P08183 whole entry)": "as above", "experiment": "Negative allosteric modulator activity at human P-gp ATP synthase hydrolytic activity assessed as inhibition of basal Pgp-ATPase activity incubated for 60 mins in presence of ATP by Glo-luminescence based microplate reader assay relative to DMSO"}, "[7]": {"molecular_target": "T1, ATP-dependent translocase ABCB1", "experiment": "Negative allosteric modulator activity at human P-gp ATP synthase hydrolytic activity assessed as inhibition of basal Pgp-ATPase activity at 1 mM incubated for 60 mins in presence of ATP by Glo-luminescence based microplate reader assay", "details": "1 h, 1000 µM; call rule not given here"}, "[8]": {"experiment": "Induction of cell cycle arrest in human KBV cells assessed as accumulation of cells at G2-M phase at 5 uM incubated for 24 hrs by flow cytometry analysis (reference value: 24.94 +/- 0.21%)", "type": "functional"}, "[9]": {"molecular_target": "Multidrug resistance-associated protein 1 (Homo sapiens, UniProt P33527)", "sequence (P33527 whole entry)": "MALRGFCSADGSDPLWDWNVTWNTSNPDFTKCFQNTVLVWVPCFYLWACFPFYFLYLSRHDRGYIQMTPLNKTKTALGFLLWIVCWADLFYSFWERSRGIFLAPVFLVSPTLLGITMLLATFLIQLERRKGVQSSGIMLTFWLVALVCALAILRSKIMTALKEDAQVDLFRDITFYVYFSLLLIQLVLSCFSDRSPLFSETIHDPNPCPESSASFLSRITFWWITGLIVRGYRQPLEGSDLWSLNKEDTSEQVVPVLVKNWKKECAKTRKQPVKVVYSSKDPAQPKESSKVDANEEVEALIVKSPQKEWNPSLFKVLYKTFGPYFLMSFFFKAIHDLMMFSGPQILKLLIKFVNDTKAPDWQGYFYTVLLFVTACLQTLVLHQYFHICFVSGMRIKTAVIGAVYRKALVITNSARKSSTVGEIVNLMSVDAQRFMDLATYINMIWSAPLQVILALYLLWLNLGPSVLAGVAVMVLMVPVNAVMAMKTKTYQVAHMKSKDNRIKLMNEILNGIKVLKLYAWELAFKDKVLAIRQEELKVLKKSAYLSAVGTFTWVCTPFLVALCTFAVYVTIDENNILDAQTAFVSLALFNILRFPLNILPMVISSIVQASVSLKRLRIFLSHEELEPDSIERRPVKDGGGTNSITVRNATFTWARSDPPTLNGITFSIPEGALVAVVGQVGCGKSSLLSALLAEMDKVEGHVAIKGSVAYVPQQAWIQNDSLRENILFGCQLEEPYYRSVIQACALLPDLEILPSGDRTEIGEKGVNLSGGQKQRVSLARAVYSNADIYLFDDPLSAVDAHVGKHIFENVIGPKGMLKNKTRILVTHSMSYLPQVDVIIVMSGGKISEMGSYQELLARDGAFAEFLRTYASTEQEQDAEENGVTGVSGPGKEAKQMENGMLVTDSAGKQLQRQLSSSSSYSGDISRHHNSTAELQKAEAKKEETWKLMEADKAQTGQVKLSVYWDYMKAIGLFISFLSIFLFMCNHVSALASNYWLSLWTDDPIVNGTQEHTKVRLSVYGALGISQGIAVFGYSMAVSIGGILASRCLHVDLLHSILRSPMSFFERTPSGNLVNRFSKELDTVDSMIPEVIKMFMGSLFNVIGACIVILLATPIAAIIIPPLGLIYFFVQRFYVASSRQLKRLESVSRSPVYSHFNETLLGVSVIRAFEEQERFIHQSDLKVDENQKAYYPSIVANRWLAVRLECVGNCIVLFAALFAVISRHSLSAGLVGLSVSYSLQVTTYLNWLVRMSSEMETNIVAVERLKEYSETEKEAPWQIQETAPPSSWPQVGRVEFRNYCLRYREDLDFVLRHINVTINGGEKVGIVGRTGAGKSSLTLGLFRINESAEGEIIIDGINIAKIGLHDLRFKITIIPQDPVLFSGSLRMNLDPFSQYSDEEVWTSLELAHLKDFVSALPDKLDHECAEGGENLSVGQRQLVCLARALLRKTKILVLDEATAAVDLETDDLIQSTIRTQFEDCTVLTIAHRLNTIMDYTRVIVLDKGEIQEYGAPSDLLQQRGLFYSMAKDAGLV", "experiment": "Binding affinity to ABCC1 in human KBV cells assessed as stabilization of ABCC1 at 50 uM incubated for 26 hrs by western blot based cellular thermal shift assay", "type": "cell-based"}, "[10]": {"experiment": "Induction of cell cycle arrest in human KBV cells assessed as accumulation of cells at G1-G0 phase at 10 uM incubated for 24 hrs by flow cytometry analysis (reference value: 62.34 +/- 0.24%)", "type": "functional"}, "[11]": {"experiment": "Induction of Ptx-mediated cell cycle arrest in human KBV cells assessed as accumulation of cells at G1-G0 phase at 10 uM incubated for 24 hrs in presence of paclitaxel by flow cytometry analysis (Rvb =57.76 +/- 0.78%)", "type": "functional"}, "[12]": {"experiment": "Induction of Ptx-mediated cell cycle arrest in human KBV cells assessed as accumulation of cells at G2-M phase at 10 uM incubated for 24 hrs in presence of paclitaxel by flow cytometry analysis (Rvb =25.34 +/- 0.92%)", "type": "functional"}, "[13]": {"experiment": "Reversal of multidrug resistance in human KBV Cells assessed as reversal fold of paclitaxel IC50 at 5 uM incubated for 72 hrs in presence of paclitaxel by MTT assay", "type": "functional"}, "[14]": {"experiment": "Induction of cell cycle arrest in human KBV cells assessed as accumulation of cells at Sub-G1 phase at 5 uM incubated for 24 hrs by flow cytometry analysis (reference value: 1.24 +/- 0.14%)", "type": "functional"}, "[15]": {"molecular_target": "T1, ATP-dependent translocase ABCB1", "experiment": "Negative allosteric modulator activity at P-glycoprotein in human KBV cells assessed as effect on P-gp protein localization at 10 uM incubated for 48 hrs by immunofluorescence analysis", "type": "cell-based"}, "[16]": {"experiment": "Induction of cell cycle arrest in human KBV cells assessed as accumulation of cells at S phase at 10 uM incubated for 24 hrs by flow cytometry analysis (reference value: 12.42 +/- 0.41%)", "type": "functional"}, "[17]": {"experiment": "Reversal of multidrug resistance in human KBV Cells assessed as increase in PTX-induced cytotoxicity by measuring cell survival rate at 5 uM incubated for 72 hrs in presence of paclitaxel by MTT assay relative to control", "type": "functional", "details": "read-out: Survival"}, "[18]": {"molecular_target": "T1, ATP-dependent translocase ABCB1", "experiment": "Negative allosteric modulator activity at P-glycoprotein mediated Rhodamine-123 efflux in human KBV cells assessed as increase in intracellular Rhodamine-123 accumulation at 10 uM incubated for 2 hrs in presence of Ptx-C by flow cytometry analysis", "type": "cell-based"}, "[19]": {"experiment": "Drug accumulation in human KB cells at 10 uM incubated for 4 hrs by LC-MS/MS analysis", "type": "ADME, cell-based"}, "[20]": {"experiment": "Reversal of multidrug resistance in human KBV Cells assessed as increase in PTX-induced cytotoxicity by measuring cell survival rate at 10 uM incubated for 72 hrs in presence of paclitaxel by MTT assay relative to control", "type": "functional", "details": "read-out: Survival"}, "[21]": {"experiment": "Induction of Ptx-mediated cell cycle arrest in human KBV cells assessed as accumulation of cells at S phase at 5 uM incubated for 24 hrs in presence of paclitaxel by flow cytometry analysis (Rvb =16.63 +/- 0.4%)", "type": "functional"}, "P-gp (ABCB1) ATPase [22]": {"molecular_target": "T2, P-gp (ABCB1) ATPase", "experiment": "Negative allosteric modulator activity at human P-gp ATP synthase hydrolytic activity assessed as inhibition of basal Pgp-ATPase activity at 25 uM incubated for 60 mins in presence of ATP by Glo-luminescence based microplate reader assay relative to DMSO"}, "[23]": {"experiment": "Induction of Ptx-mediated cell cycle arrest in human KBV cells assessed as accumulation of cells at Sub-G1 phase at 5 uM incubated for 24 hrs in presence of paclitaxel by flow cytometry analysis (reference value: 1.21 +/- 0.3%)", "type": "functional"}, "P-gp (ABCB1) ATPase [24]": {"molecular_target": "T2, P-gp (ABCB1) ATPase", "experiment": "Negative allosteric modulator activity at human P-gp ATP synthase hydrolytic activity assessed as inhibition of Vrp-stimulated Pgp-ATPase activity at 25 uM incubated for 60 mins in presence of ATP by Glo-luminescence based microplate reader assay relative to DMSO", "details": "probe Vrp (stimulator of the ATPase activity)"}, "[25]": {"molecular_target": "T1, ATP-dependent translocase ABCB1", "experiment": "Negative allosteric modulator activity at P-glycoprotein in human KBV cells assessed as effect on P-gp protein expression level at 10 uM incubated for 72 hrs by Western blotting analysis", "type": "cell-based"}, "[26]": {"molecular_target": "T1, ATP-dependent translocase ABCB1", "experiment": "Negative allosteric modulator activity at human P-gp ATP synthase hydrolytic activity assessed as inhibition of basal Pgp-ATPase activity at 0.5 mM incubated for 60 mins in presence of ATP by Glo-luminescence based microplate reader assay", "details": "1 h, 500 µM"}, "[27]": {"experiment": "Induction of Ptx-mediated cell cycle arrest in human KBV cells assessed as accumulation of cells at G1-G0 phase at 5 uM incubated for 24 hrs in presence of paclitaxel by flow cytometry analysis (Rvb =57.76 +/- 0.78%)", "type": "functional"}, "[28]": {"experiment": "Drug accumulation in human KBV cells at 10 uM incubated for 4 hrs by LC-MS/MS analysis", "type": "ADME, cell-based"}, "[29]": {"experiment": "Chemo-sensitizing activity against Ptx-resistance human KBV cells xenografted in BALB/c mouse assessed as inhibition of tumor growth at 20 mg/kg,ip pre-treated with paclitaxel measured after 23 days", "type": "functional", "details": "552 h, time 23 day"}, "[30]": {"experiment": "Cytotoxicity against human KBV Cells assessed as cell survival rate at 10 uM incubated for 72 hrs by MTT assay", "type": "functional", "details": "read-out: Survival"}}, "data": [{"compound": "CC(C)(O)[C@H]1CC[C@@](C)([C@H]2CC[C@]3(C)[C@@H]2[C@H](O)C[C@@H]2[C@@]4(C)CC[C@H](NC(=O)[C@@H]5CCCN5)C(C)(C)[C@@H]4CC[C@]23C)O1", "values": [{"measurement": "Activity", "setting": "[1]", "value": "Dose-Dependent Effect"}, {"measurement": "Activity", "setting": "[2]", "value": 8.58, "unit": "%"}, {"measurement": "Activity", "setting": "[3]", "value": "Active"}, {"measurement": "Activity", "setting": "[4]", "value": 25.93, "unit": "%"}, {"measurement": "Activity", "setting": "[5]", "value": 20.53, "unit": "%"}, {"measurement": "inhibition at 1 h", "setting": "P-gp (ABCB1) ATPase [6]", "value": 13, "unit": "%"}, {"measurement": "inhibition (INH)", "setting": "[7]", "value": "Not Active"}, {"measurement": "Activity", "setting": "[8]", "value": 27.12, "unit": "%"}, {"measurement": "Activity", "setting": "[9]", "value": "Not Active"}, {"measurement": "Activity", "setting": "[10]", "value": 60.47, "unit": "%"}, {"measurement": "Activity", "setting": "[11]", "value": 36.65, "unit": "%"}, {"measurement": "Activity", "setting": "[12]", "value": 42.21, "unit": "%"}, {"measurement": "fold change (FC)", "setting": "[13]", "value": 21}, {"measurement": "Activity", "setting": "[14]", "value": 0.58, "unit": "%"}, {"measurement": "Activity", "setting": "[15]", "value": "Not Active"}, {"measurement": "Activity", "setting": "[16]", "value": 13.74, "unit": "%"}, {"measurement": "viability at 5 µM", "setting": "[17]", "value": 34, "unit": "%"}, {"measurement": "Activity", "setting": "[18]", "value": "Not Active"}, {"measurement": "Drug uptake", "setting": "[19]", "value": "Active"}, {"measurement": "viability at 10 µM", "setting": "[20]", "value": 30, "unit": "%"}, {"measurement": "Activity", "setting": "[21]", "value": 22, "unit": "%"}, {"measurement": "inhibition at 1 h, 25 µM", "setting": "P-gp (ABCB1) ATPase [22]", "value": 87, "unit": "%"}, {"measurement": "Activity", "setting": "[23]", "value": 11.4, "unit": "%"}, {"measurement": "inhibition at 1 h, 25 µM", "setting": "P-gp (ABCB1) ATPase [24]", "value": 60, "unit": "%"}, {"measurement": "Activity", "setting": "[25]", "value": "Not Active"}, {"measurement": "inhibition (INH)", "setting": "[26]", "value": "Not Active"}, {"measurement": "Activity", "setting": "[27]", "value": 45.93, "unit": "%"}, {"measurement": "Drug uptake", "setting": "[28]", "value": "Active"}, {"measurement": "inhibition in vivo at 20 mg/kg", "setting": "[29]", "value": 58.1, "unit": "%"}, {"measurement": "viability at 10 µM", "setting": "[30]", "value": 123, "unit": "%"}]}]}
